Test results reported in US20150322051A1, “Macrocyclic picolinamides as fungicides” (Dow AgroSciences LLC, priority 2014, published 2015).
Read-outs that look alike come from different tables or passages of the source.

Key:
[1] = system: Mycosphaerella graminicola; anamorph: Septoria tritici (SEPTTR); assay: Leaf blotch of wheat (SEPTTR) whole-plant fungicidal test; type: in vivo; conditions: Zymoseptoria tritici, topical; for pest or weed control at 100 ppm: high volume application; for pest or weed control at 121.5 g/ha: low volume (track spray) application, 121.5 g/H
Protocol: (§1) All fungicides were evaluated using the aforementioned method for their activity vs. all target diseases, unless stated otherwise. Wheat leaf blotch and brown rust activity were also evaluated using track spray applications, in which case the fungicides were formulated as EC formulations, containing 0.1% Trycol 5941 in the spray solutions. Wheat plants (variety Yuma) were grown from seed in a greenhouse in 50% mineral soil/50% soil-less Metro mix until the first leaf was fully emerged, with 7-10 seedlings per pot. These plants were inoculated with an aqueous spore suspension of Septoria tritici either prior to or after fungicide treatments. After inoculation the plants were kept in 100% relative humidity (one day in a dark dew chamber followed by two to three days in a lighted dew chamber at 20° C.) to permit spores to germinate and infect the leaf. The plants were then transferred to a greenhouse set at 20° C. for disease to develop. When disease symptoms were fully expressed on the 1st leaves of untreated plants, infection levels were assessed on a scale of 0 to 100 percent disease severity. Percent disease control was calculated using the ratio of disease severity on treated plants relative to untreated plants.

[2] = system: Puccinia triticina; synonym: Puccinia recondita f. sp. tritici (PUCCRT); assay: Wheat brown rust (PUCCRT) whole-plant fungicidal test; type: in vivo; conditions: topical; for pest or weed control at 100 ppm: high volume application; for pest or weed control at 121.5 g/ha: low volume (track spray) application, 121.5 g/H
Protocol: as §1, with “plants. Wheat plants (variety Yuma) were grown from seed in a greenhouse in 50% mineral soil/50% soil-less Metro mix until the first leaf was fully emerged, with 7-10 seedlings per pot. These plants were inoculated with an aqueous spore suspension of Puccinia triticina either prior to or after fungicide treatments. […] The plants were then transferred to a greenhouse set at 24° C. for disease to develop. Fungicide formulation, application and disease assessment followed the procedures as described in the Example A.” for “plants.”

[3] = 24 h, 1 Day Protectant, read-out: High Volume activity at 100 ppm SEPTTR 1DP (% disease control rating)
[4] = 72 h, 3 Day Curative, read-out: High Volume activity at 100 ppm SEPTTR 3DC (% disease control rating)
[5] = 24 h, 1 Day Protectant, read-out: High Volume activity at 100 ppm PUCCRT 1DP (% disease control rating)
[6] = 72 h, 3 Day Curative, read-out: High Volume activity at 100 ppm PUCCRT 3DC (% disease control rating)
[7] = 24 h, 1 Day Protectant, read-out: Low Volume activity at 121.5 g/H SEPTTR 1DP (% disease control rating)
[8] = 72 h, 3 Day Curative, read-out: Low Volume activity at 121.5 g/H SEPTTR 3DC (% disease control rating)
[9] = 24 h, 1 Day Protectant, read-out: Low Volume activity at 121.5 g/H PUCCRT 1DP (% disease control rating)
[10] = 72 h, 3 Day Curative, read-out: Low Volume activity at 121.5 g/H PUCCRT 3DC (% disease control rating)

| Structure (SMILES) | pest or weed control at 100 ppm [1, 3] [%] | pest or weed control at 100 ppm [1, 4] [%] | pest or weed control at 100 ppm [2, 5] [%] | pest or weed control at 100 ppm [2, 6] [%] | pest or weed control at 121.5 g/ha [1, 7] [%] | pest or weed control at 121.5 g/ha [1, 8] [%] | pest or weed control at 121.5 g/ha [2, 9] [%] | pest or weed control at 121.5 g/ha [2, 10] [%] |
| --- | --- | --- | --- | --- | --- | --- | --- | --- |
| COc1ccnc(C(=O)N[C@H]2CCC[C@H](Cc3ccc(Cl)cc3)[C@@H](Cc3ccccc3)[C@H](C)OC2=O)c1O [Compound 79] | > 70 | < 70 | > 70 | < 70 | – | – | – | – |
| CCOCC(=O)OCOc1c(OC)ccnc1C(=O)N[C@H]1CCC[C@H](Cc2ccccc2)[C@@H](CCC(C)C)[C@H](C)OC1=O [Compound 51] | – | – | – | – | > 70 | > 70 | > 70 | < 70 |
| COc1ccnc(C(=O)N[C@H]2CCC[C@H](Cc3ccc(C(F)(F)F)cc3)[C@@H](Cc3ccccc3)[C@H](C)OC2=O)c1O [Compound 81] | > 70 | < 70 | > 70 | < 70 | – | – | – | – |
| COc1ccnc(C(=O)N[C@H]2CCC[C@H](CCCc3ccccc3)[C@@H](CCc3ccccc3)[C@H](C)OC2=O)c1OCOC(C)=O [Compound 32] | – | – | – | – | > 70 | < 70 | > 70 | < 70 |
| COc1ccnc(C(=O)N[C@H]2CCC[C@H](Cc3ccc(Cl)cc3)[C@@H](C3CCCC3)[C@H](C)OC2=O)c1OCOC(=O)C(C)C [Compound 30] | – | – | – | – | > 70 | > 70 | < 70 | < 70 |
| CCCC[C@@H]1[C@@H](Cc2ccc(C(F)(F)F)cc2)CCC[C@H](NC(=O)c2nccc(OC)c2O)C(=O)O[C@H]1C [Compound 72] | > 70 | < 70 | > 70 | < 70 | – | – | – | – |
| COc1ccnc(C(=O)N[C@H]2CCC[C@H](CCC(C)C)[C@@H](Cc3ccccc3)[C@H](C)OC2=O)c1O [Compound 73] | > 70 | > 70 | > 70 | < 70 | – | – | – | – |
| COc1ccnc(C(=O)N[C@H]2CCC[C@H](Cc3ccccc3)[C@@H](Cc3ccc(F)cc3)[C@H](C)OC2=O)c1OCOC(=O)C(C)C [Compound 64] | – | – | – | – | > 70 | > 70 | > 70 | < 70 |
| COc1ccnc(C(=O)N[C@H]2CCC[C@H](Cc3ccc(Cl)cc3)[C@@H](CC(C)C)[C@H](C)OC2=O)c1OC(C)=O [Compound 13] | – | – | – | – | > 70 | > 70 | > 70 | < 70 |
| CCOCC(=O)OCOc1c(OC)ccnc1C(=O)N[C@H]1CCC[C@H](Cc2ccc(Cl)cc2)[C@@H](C2CCCC2)[C@H](C)OC1=O [Compound 31] | – | – | – | – | > 70 | > 70 | > 70 | < 70 |
| CCCC[C@@H]1[C@@H](Cc2ccccc2)CCC[C@H](NC(=O)c2nccc(OC)c2OC(C)=O)C(=O)O[C@H]1C [Compound 1, 2-(((3S,7R,8R,9S)-7-benzyl-8-butyl-9-methyl-2-oxooxonan-3-yl)carbamoyl)-4-methoxypyridin-3-yl acetate] | > 70 | > 70 | > 70 | > 70 | > 70 | > 70 | > 70 | < 70 |
| COc1ccnc(C(=O)N[C@H]2CCC[C@H](Cc3ccccc3)[C@@H](c3ccccc3)[C@H](C)OC2=O)c1OC(C)=O [Compound 53] | – | – | – | – | > 70 | > 70 | > 70 | < 70 |
| CCCC[C@@H]1[C@@H](Cc2ccccc2)CCC[C@H](NC(=O)c2nccc(OC)c2OCOC(C)=O)C(=O)O[C@H]1C [Compound 2, ((2-(((3S,7R,8R,9S)-7-benzyl-8-butyl-9-methyl-2-oxooxonan-3-yl)carbamoyl)-4-methoxypyridin-3-yl)oxy)methyl acetate] | > 70 | > 70 | > 70 | > 70 | > 70 | > 70 | > 70 | < 70 |
| COc1ccnc(C(=O)N[C@H]2CCC[C@H](Cc3ccc(C(F)(F)F)cc3)[C@@H](CC(C)C)[C@H](C)OC2=O)c1OC(C)=O [Compound 22] | – | – | – | – | > 70 | < 70 | > 70 | < 70 |
| CCOCC(=O)OCOc1c(OC)ccnc1C(=O)N[C@H]1CCC[C@H](Cc2ccccc2)[C@@H](Cc2ccc(OC(F)(F)F)cc2)[C@H](C)OC1=O [Compound 69] | – | – | – | – | > 70 | < 70 | < 70 | < 70 |
| COc1ccnc(C(=O)N[C@H]2CCC[C@H](Cc3ccccc3)[C@@H](Cc3ccccc3)[C@H](C)OC2=O)c1OC(C)=O [Compound 5] | – | – | – | – | > 70 | > 70 | > 70 | > 70 |
| COc1ccnc(C(=O)N[C@H]2CCC[C@H](Cc3ccccc3)[C@@H](c3ccccc3)[C@H](C)OC2=O)c1O [Compound 90] | > 70 | > 70 | > 70 | > 70 | – | – | – | – |
| COc1ccnc(C(=O)N[C@H]2CCC[C@H](Cc3ccccc3)[C@@H](CCc3ccccc3)[C@H](C)OC2=O)c1OC(C)=O [Compound 18] | – | – | – | – | > 70 | > 70 | < 70 | < 70 |
| COc1ccnc(C(=O)N[C@H]2CCC[C@H](Cc3ccc(C(F)(F)F)cc3)[C@@H](Cc3ccccc3)[C@H](C)OC2=O)c1OCOC(C)=O [Compound 26] | – | – | – | – | > 70 | < 70 | > 70 | < 70 |
| COc1ccnc(C(=O)N[C@H]2CCC[C@H](Cc3ccc(Cl)cc3)[C@@H](C3CCCC3)[C@H](C)OC2=O)c1O [Compound 84] | > 70 | > 70 | > 70 | < 70 | – | – | – | – |
| COc1ccnc(C(=O)N[C@H]2CCC[C@H](CCCc3ccccc3)[C@@H](Cc3ccc(OC(F)(F)F)cc3)[C@H](C)OC2=O)c1OCOC(C)=O [Compound 59] | – | – | – | – | > 70 | < 70 | > 70 | < 70 |
| COc1ccnc(C(=O)N[C@H]2CCC[C@H](CCC(C)C)[C@@H](C3CCCC3)[C@H](C)OC2=O)c1OCOC(C)=O [Compound 42] | – | – | – | – | > 70 | > 70 | > 70 | < 70 |
| COc1ccnc(C(=O)N[C@H]2CCC[C@H](Cc3ccc(C(F)(F)F)cc3)[C@@H](Cc3ccc(F)cc3)[C@H](C)OC2=O)c1OC(C)=O [Compound 40] | – | – | – | – | > 70 | < 70 | < 70 | < 70 |
